One series concerns JJN3. Kind of series: CellTiter-Glo cell viability assay, JJN3. The settings on record: Homo sapiens. In kind it is cell-based.
In the next series the test system is RPMI-8826. Briefly: CellTiter-Glo cell viability assay, RPMI-8826. In kind it is cell-based. (In general: In ATP-based viability assays light output follows the ATP content of the culture.)
A further series deals with T1, cIAP1 (BIRC2) (Homo sapiens, UniProt Q13490).
T1 construct: endogenous in cells; host or cells: MM.1S
T1 sequence (Q13490 whole entry): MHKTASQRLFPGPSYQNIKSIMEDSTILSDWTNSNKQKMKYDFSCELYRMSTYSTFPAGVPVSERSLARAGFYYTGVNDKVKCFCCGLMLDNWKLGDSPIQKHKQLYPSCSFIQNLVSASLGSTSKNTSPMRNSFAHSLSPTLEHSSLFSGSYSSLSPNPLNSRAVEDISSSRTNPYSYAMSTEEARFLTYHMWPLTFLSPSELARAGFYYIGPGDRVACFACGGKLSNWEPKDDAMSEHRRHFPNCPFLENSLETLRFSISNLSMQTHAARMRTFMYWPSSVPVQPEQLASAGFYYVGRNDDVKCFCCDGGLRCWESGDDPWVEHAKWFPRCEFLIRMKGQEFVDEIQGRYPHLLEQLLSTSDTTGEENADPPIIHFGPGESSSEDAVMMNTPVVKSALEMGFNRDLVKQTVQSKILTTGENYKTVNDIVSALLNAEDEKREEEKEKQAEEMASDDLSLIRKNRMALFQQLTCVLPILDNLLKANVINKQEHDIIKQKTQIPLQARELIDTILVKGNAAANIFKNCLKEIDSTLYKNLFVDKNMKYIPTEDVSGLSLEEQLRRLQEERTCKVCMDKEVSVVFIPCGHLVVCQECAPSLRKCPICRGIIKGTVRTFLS
Briefly: diaPASEF quantitative proteomics in MM.1S cells: cIAP1 (BIRC2). The class given is cell-based. The following applies: 3 h; for cIAP1 level in global proteomics (in words): 100 nM, diaPASEF. How it is done: (§1) To analyze the proteome-wide degradation selectivity of hetero-PROTACs 9, 25, and 27, a diaPASEF-based mass spectrometry approach was employed.[54] MM.1S cells were treated with 100 nM PROTACs for 3 h. […] Accordingly, global proteomic plots show the mathematically imputed levels of IAP proteins in treatment groups if the corresponding IAP was detected in the control treatment (see also Experimental Section).
(§2) MM1s cells were treated with DMSO or 0.1 μM of compound for 3 h. The cells were harvested by centrifugation and washed with phosphate-buffered saline before snap-freezing in liquid nitrogen. The cells were lysed by addition of lysis buffer (8 M urea, 50 mM NaCl, 50 mM 4-(2-hydroxyethyl)-1-piperazine-ethanesulfonic acid (EPPS) pH 8.5, protease, and phosphatase inhibitors) and homogenization by bead beating (BioSpec) for three repeats of 30 s at 2400. Bradford assay was used to determine the final protein concentration in the clarified cell lysate. 50 μg of protein for each sample was reduced, alkylated, and precipitated using methanol/chloroform as previously described,[64] and the resulting washed precipitated protein was allowed to air dry. The precipitated protein was resuspended in 4 M urea, 50 mM HEPES pH 7.4, followed by dilution to 1 M urea with the addition of 200 mM EPPS, pH 8. Proteins were first digested with LysC (1:50; enzyme/protein) for 12 h at RT. The LysC digestion was diluted to 0.5 M urea with 200 mM EPPS pH 8, followed by digestion with trypsin (1:50; enzyme/protein) for 6 h at 37 °C. Sample digests were acidified with formic acid to a pH of 2–3 prior to desalting using C18 solid-phase extraction plates (SOLA, Thermo Fisher Scientific). Desalted peptides were dried in a vacuum centrifuge and reconstituted in 0.1% formic acid for LC–MS analysis.
(§3) Data were collected using a TimsTOF Pro2 (Bruker Daltonics, Bremen, Germany) coupled to a nanoElute LC pump (Bruker Daltonics, Bremen, Germany) via a CaptiveSpray nanoelectrospray source. Peptides were separated on a reversed-phase C18 column (25 cm × 75 μm ID, 1.6 μM, IonOpticks, Australia) containing an integrated captive spray emitter. Peptides were separated using a 50 min gradient of 2–30% buffer B (acetonitrile in 0.1% formic acid) with a flow rate of 250 nL/min and column temperature maintained at 50 °C.
(§4) Data-Dependent Acquisition (DDA) was performed in the Parallel Accumulation-Serial Fragmentation (PASEF) mode to determine effective ion mobility windows for downstream diaPASEF data collection.[54] The diaPASEF parameters included 100% duty cycle using accumulation and ramp times of 50 ms each, 1 TIMS-MS scan, and 10 PASEF ramps per acquisition cycle. The TIMS-MS survey scan was acquired between 100–1700 m/z and 1/K0 of 0.7–1.3 V × s/cm^2. Precursors with 1–5 charges were selected, and those that reached an intensity threshold of 20,000 arbitrary units were actively excluded for 0.4 min. The quadrupole isolation width was set to 2 m/z for m/z < 700 and 3 m/z for m/z > 800, with the m/z between 700 and 800 m/z being interpolated linearly. The TIMS elution voltages were calibrated linearly with three points (Agilent ESI-L Tuning Mix Ions; 622, 922, 1222 m/z) to determine the reduced ion mobility coefficients (1/K0). To perform diaPASEF, the precursor distribution in the DDA m/z-ion mobility plane was used to design an acquisition scheme for DIA data collection, which included two windows in each 50 ms diaPASEF scan. […]

For another series, the system named is SUDHL4. Briefly: CellTiter-Glo cell viability assay, SUDHL4. The class given is cell-based. The settings on record: Homo sapiens.
A short description of series [1]: Log D7.4 measurement by chromatographic (fast-gradient HPLC) method. The following applies: pH 7.4.
Description: The system was calibrated by plotting the retention times of six different drugs (atenolol, metoprolol, labetalol, diltiazem, triphenylene, and permethrin) versus their literature-known log D7.4 in a calibration line (R^2 = 0.99). Subsequently, the mean retention times of the analytes were taken to calculate their log D7.4 values with the aid of the calibration line. At least two independent measurements of each analyte were performed.
The next series relates to NCI-H929. Kind of series: CellTiter-Glo cell viability assay, NCI-H929. In kind it is cell-based. The following applies: Homo sapiens.
The next series has as its target cIAP1 (Homo sapiens, UniProt Q13490). Kind of series: Immunoblotting (western blot) quantification of cIAP1 levels in MM.1S cells. Also on record: Dmax: dose or concentration left out as unconfirmed. A general note: A western blot detects proteins with antibodies after separation by electrophoresis.
The subject of a further series is SUDHL6. Kind of series: CellTiter-Glo cell viability assay, SUDHL6. The class given is cell-based. The following applies: Homo sapiens.
The target of another series is XIAP (Homo sapiens, UniProt P98170). Kind of series: diaPASEF quantitative proteomics in MM.1S cells: XIAP. The class given is cell-based. The arrangement: endogenous in cells; host or cells: MM.1S. The settings on record: 3 h; for XIAP level in global proteomics (in words): 100 nM, diaPASEF; for logFC XIAP: 0.1 μM, log2 fold change compound vs CTRLs (limma). How it is done:
as §1, §2, §3
as §4, with “scan. Data was acquired using 16 of these 25 Da precursor double window scans (creating 32 windows), which covered the diagonal scan line for doubly and triply charged precursors, with singly charged precursors able to be excluded by their position in the m/z-ion mobility plane. These precursor isolation windows were defined between 400–1200 m/z and 1/K0 of 0.7–1.3 V × s/cm^2.” for “scan.”

The mark [2] stands for this setting: MM1.S, 16 h, read-out: %remaining protein cIAP1, MM.1S cells, 16 h treatment at 0.1 μM, normalized to loading control and DMSO.

Like-named read-outs stand apart in the source and are kept apart here.

Experimental findings from article PMC10108347, “Heterobifunctional Ligase Recruiters Enable pan-Degradation of Inhibitor of Apoptosis Proteins” (Journal of Medicinal Chemistry, 2023) are described below.

cIAP1, sequence (Q13490 whole entry): as above
XIAP, sequence (P98170 whole entry): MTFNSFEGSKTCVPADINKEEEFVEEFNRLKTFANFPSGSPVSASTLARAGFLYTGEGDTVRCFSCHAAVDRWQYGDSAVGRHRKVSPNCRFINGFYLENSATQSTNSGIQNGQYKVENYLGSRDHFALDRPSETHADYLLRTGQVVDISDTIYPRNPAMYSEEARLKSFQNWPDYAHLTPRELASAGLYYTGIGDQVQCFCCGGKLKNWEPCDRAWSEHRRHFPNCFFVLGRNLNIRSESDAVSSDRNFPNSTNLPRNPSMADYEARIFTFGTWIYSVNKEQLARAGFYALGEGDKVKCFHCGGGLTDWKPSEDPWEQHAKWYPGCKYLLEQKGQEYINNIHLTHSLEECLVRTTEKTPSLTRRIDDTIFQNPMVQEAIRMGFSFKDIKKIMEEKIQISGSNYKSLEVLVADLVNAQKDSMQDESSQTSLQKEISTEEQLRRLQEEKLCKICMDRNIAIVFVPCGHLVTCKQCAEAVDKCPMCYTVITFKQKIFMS

One may read the chromatographic logD as lipophilicity estimated from chromatographic retention. As to `CN[C@@H](C)C(=O)N[C@@H](C(=O)N1CCC[C@H]1C(=O)N[C@@H]1c2ccccc2C[C@@H]1OCC#CC#CCO[C@H]1Cc2ccccc2[C@H]1NC(=O)[C@@H]1CCCN1C(=O)[C@H](NC(=O)[C@H](C)NC)C1CCCCC1)C1CCCCC1` [AZD5582, reference compound], the IC50 was found to be 0.2 µM in the series on JJN3 (JJN-3, SI csv, head prints only the cell line, no quantity or unit, values parallel Table 1/S8, read-out: JJN3); 0.47 µM in the series with RPMI-8826 (SI csv, head prints only the cell line, no quantity or unit, values parallel Table 1/S8, read-out: RPMI-8826); 1.64 µM in the series on SUDHL4 (SU-DHL-4, SI csv, head prints only the cell line, no quantity or unit, values parallel Table 1/S8, read-out: SUDHL4); 0.014 µM in the series with NCI-H929 (SI csv, head prints only the cell line, no quantity or unit, values parallel Table 1/S8, read-out: NCI-H929); 0.0015 µM with SUDHL6 (SU-DHL-6, SI csv, head prints only the cell line, no quantity or unit, values parallel Table 1/S8, read-out: SUDHL6). Further, the “cIAP1 level in global proteomics (in words)” value (shortened to “cIAP1 level”) on cIAP1 (BIRC2) was “depleted cIAP1 below the detection level”. In addition, the chromatographic logD in series [1] is 4.1. Moreover, on cIAP1 (MM.1S cells, 16 h, western blot, 0.1 or 1 μM), the “cIAP1 degradation (in words)” value is on record as “substantial degradation”. Moreover, the “XIAP level in global proteomics (in words)” value (“XIAP level” below) at XIAP is “did not cause XIAP degradation”.

As a reminder, the Dmax is the greatest extent of degradation seen. On to `CN[C@@H](C)C(=O)N[C@H](C(=O)N1C[C@@H](Oc2cccc(OCCCCC(=O)N[C@H](C(=O)N3C[C@H](O)C[C@H]3C(=O)N[C@@H](C)c3ccc(-c4scnc4C)cc3)C(C)(C)C)c2)C[C@H]1C(=O)N[C@@H]1CCCc2ccccc21)C1CCCCC1` [PROTAC 9, (2S,4S)-1-((S)-2-Cyclohexyl-2-((S)-2-(methylamino)propanamido)acetyl)-4-(3-((5-(((S)-1-((2S,4R)-4-hydroxy-2-(((S)-1-(4-(4-methylthiazol-5-yl)phenyl)ethyl)carbamoyl)pyrrolidin-1-yl)-3,3-dimethyl-1-oxobutan-2-yl)amino)-5-oxopentyl)oxy)phenoxy)-N-((R)-1,2,3,4-tetrahydronaphthalen-1-yl)pyrrolidine-2-carboxamide], for which the IC50 with JJN3 (JJN-3, MM cell line, 96 h, TNFα-challenged, read-out: IC50 cell viability JJN3) amounted to 1.14 µM; in the series on RPMI-8826 (MM cell line, 96 h, TNFα-challenged, read-out: IC50 cell viability RPMI-8826) it was 2.54 µM; in the series with SUDHL4 (SU-DHL-4, DLBCL cell line, 96 h, TNFα-challenged, read-out: IC50 cell viability SUDHL4) it was 1.69 µM; in the series on NCI-H929 (NCI-H929, MM cell line, 96 h, TNFα-challenged, read-out: IC50 cell viability NCI-H929), 0.0085 µM; with SUDHL6 (SU-DHL-6, DLBCL cell line, 96 h, TNFα-challenged, read-out: IC50 cell viability SUDHL6), 0.0016 µM. On cIAP1 (BIRC2), the “cIAP1 level” value was “below the detection level”. For the same molecule, at cIAP1 (setting [2]), the remaining activity at 0.1 µM stood at 5%. Further, the Dmax on cIAP1 (MM1.S, read-out: Dmax cIAP1 (maximum degradation), MM.1S cells, 16 h) was 99%. Also, the “Dmax cIAP1 (maximum degradation)” value on cIAP1 (MM.1S cells, 16 h, at 0.1 μM) was greater than 99%. Also, the DC50 at cIAP1 (read-out: DC50,16h cIAP1, MM.1S cells, 16 h, densitometric quantification of western blots, n = 4) came to 0.0024 µM. Also, at XIAP, the “logFC XIAP” value was -1.764. Further, on XIAP, the “XIAP level” value is “below the detection level”.

With `CN[C@@H](C)C(=O)N[C@H](C(=O)N1C[C@@H](Oc2cccc(OCCOCCCCCCOCCCCCCNc3cccc4c3C(=O)N(C3CCC(=O)NC3=O)C4=O)c2)C[C@H]1C(=O)N[C@@H]1CCCc2ccccc21)C1CCCCC1` (stereo partly drawn) [PROTAC 25, (2S,4S)-1-((S)-2-Cyclohexyl-2-((S)-2-(methylamino)propanamido)acetyl)-4-(3-(2-((6-((6-((2-(2,6-dioxopiperidin-3-yl)-1,3-dioxoisoindolin-4-yl)amino)hexyl)oxy)hexyl)oxy)ethoxy)phenoxy)-N-((R)-1,2,3,4-tetrahydronaphthalen-1-yl)pyrrolidine-2-carboxamide], the IC50 worked out at 0.18 µM with JJN3 (JJN-3, read-out: JJN3); 1.52 µM in the series on RPMI-8826 (read-out: RPMI-8826); 0.92 µM in the series with SUDHL4 (SU-DHL-4, read-out: SUDHL4); 0.027 µM in the series with NCI-H929 (NCI-H929, 96 h, read-out: IC50 cell viability NCI-H929); 0.014 µM in the series with SUDHL6 (SU-DHL-6, read-out: SUDHL6). Also, the “logFC BIRC2” value at cIAP1 (BIRC2) (0.1 μM, log2 fold change compound vs CTRLs (limma)) is on record as -2.352. The “cIAP1 level” value on cIAP1 (BIRC2) is “below the detection level”. In series [1], this molecule came in with a chromatographic logD of 6. Further, the remaining activity at 0.1 µM at cIAP1 (MM1.S, 16 h, read-out: %remaining protein cIAP1) is 5%. Also, the “logFC XIAP” value at XIAP is listed as -3.7. In addition, the “XIAP level” value at XIAP was “below the detection level”.

For `CN[C@@H](C)C(=O)N[C@H](C(=O)N1C[C@@H](Oc2cccc(OCCCCCCOCCCCCCOCCCCCCNc3cccc4c3C(=O)N(C3CCC(=O)NC3=O)C4=O)c2)C[C@H]1C(=O)N[C@@H]1CCCc2ccccc21)C1CCCCC1` (stereo partly drawn) [PROTAC 27, (2S,4S)-1-((S)-2-Cyclohexyl-2-((S)-2-(methylamino)propanamido)acetyl)-4-(3-((6-((6-((6-((2-(2,6-dioxopiperidin-3-yl)-1,3-dioxoisoindolin-4-yl)amino)hexyl)oxy)hexyl)oxy)hexyl)oxy)phenoxy)-N-((R)-1,2,3,4-tetrahydronaphthalen-1-yl)pyrrolidine-2-carboxamide], at cIAP1 (BIRC2), the “cIAP1 level” value is listed as “no impact”. Also, in [1], the chromatographic logD worked out at 7.2. Moreover, the remaining activity at 0.1 µM on cIAP1 (setting [2]) is 27%. For the same molecule, at XIAP, the “XIAP level” value was “selective XIAP degradation”.
